Reference: ChEMBL document CHEMBL4229455, “Synthesis and anticancer activity of novel bisindolylhydroxymaleimide derivatives with potent GSK-3 kinase inhibition” (Bioorg Med Chem, 2018)

How the values were obtained:
SK-MEL-5 = assay: Cytotoxicity against human SK-MEL-5 cells assessed as cell growth at 10 uM after 48 hrs by SRB assay relative to control; assay type: functional; settings: SK-MEL-5, 48 h, read-out: Activity
CAKI-1 = assay: Cytotoxicity against human Caki1 cells assessed as cell growth at 10 uM after 48 hrs by SRB assay relative to control; assay type: functional; settings: CAKI-1, 48 h, read-out: Activity
Sus scrofa domesticus = species on record: Sus scrofa domesticus; assay: Inhibition of domestic porcine brain full length […] assessed as residual activity at 10 uM using RRKHAAIGSpAYSITA as substrate in presence of [gamma-33P]ATP
OVCAR-5 = assay: Cytotoxicity against human OVCAR5 cells assessed as cell growth at 10 uM after 48 hrs by SRB assay relative to control; assay type: functional; settings: OVCAR-5, 48 h, read-out: Activity
SNB-75 = assay: Cytotoxicity against human SNB75 cells assessed as cell growth at 10 uM after 48 hrs by SRB assay relative to control; assay type: functional; settings: SNB-75, 48 h, read-out: Activity
MDA-MB-435 = assay: Cytotoxicity against human MDA-MB-435 cells assessed as cell growth at 10 uM after 48 hrs by SRB assay relative to control; assay type: functional; settings: MDA-MB-435, 48 h, read-out: Activity
HCC 2998 = assay: Cytotoxicity against human HCC2998 cells assessed as cell growth at 10 uM after 48 hrs by SRB assay relative to control; assay type: functional; settings: HCC 2998, 48 h, read-out: Activity
SF-539 = assay: Cytotoxicity against human SF539 cells assessed as cell growth at 10 uM after 48 hrs by SRB assay relative to control; assay type: functional; settings: SF-539, 48 h, read-out: Activity
[1] = target: CDK2/Cyclin A2 (Homo sapiens) (UniProt P24941+P20248); assay: Inhibition of full length human CDK2/cyclin A assessed as residual activity at 10 uM using histone H1 as substrate in presence of [gamma-33P]ATP; assay type: protein-complex assay
Malme-3M = assay: Cytotoxicity against human MALME-3M cells assessed as cell growth at 10 uM after 48 hrs by SRB assay relative to control; assay type: functional; settings: read-out: Activity
SW-620 = assay: Cytotoxicity against human SW620 cells assessed as cell growth at 10 uM after 48 hrs by SRB assay relative to control; assay type: functional; settings: SW-620, 48 h, read-out: Activity
CCRF-CEM = assay: Cytotoxicity against human CCRF-CEM cells assessed as cell growth at 10 uM after 48 hrs by SRB assay relative to control; assay type: functional; settings: read-out: Activity
IGROV-1 = assay: Cytotoxicity against human IGROV1 cells assessed as cell growth at 10 uM after 48 hrs by SRB assay relative to control; assay type: functional; settings: IGROV-1, 48 h, read-out: Activity
U-251 = assay: Cytotoxicity against human U251 cells assessed as cell growth at 10 uM after 48 hrs by SRB assay relative to control; assay type: functional; settings: U-251, 48 h, read-out: Activity
SK-MEL-28 = assay: Cytotoxicity against human SK-MEL-28 cells assessed as cell growth at 10 uM after 48 hrs by SRB assay relative to control; assay type: functional; settings: SK-MEL-28, 48 h, read-out: Activity
[2] = target: Glycogen synthase kinase-3 (Sus scrofa, UniProt B2LUN4+I6LNT8); assay: Inhibition of domestic porcine brain full length GSK-3alpha/beta using GS-1 as substrate in presence of [gamma-33P]ATP; parameters: species or system Sus scrofa domesticus
[3] = target: Cyclin-dependent kinase 5/CDK5 activator 1 (Homo sapiens) (UniProt Q00535+Q15078); assay: Inhibition of recombinant full length human CDK5/p25 expressed in bacteria assessed as residual activity at 10 uM using histone H1 as substrate in presence of [gamma-33P]ATP
Sequence of Cyclin-dependent kinase 5/CDK5 activator 1 (Homo sapiens) (Q00535 whole entry): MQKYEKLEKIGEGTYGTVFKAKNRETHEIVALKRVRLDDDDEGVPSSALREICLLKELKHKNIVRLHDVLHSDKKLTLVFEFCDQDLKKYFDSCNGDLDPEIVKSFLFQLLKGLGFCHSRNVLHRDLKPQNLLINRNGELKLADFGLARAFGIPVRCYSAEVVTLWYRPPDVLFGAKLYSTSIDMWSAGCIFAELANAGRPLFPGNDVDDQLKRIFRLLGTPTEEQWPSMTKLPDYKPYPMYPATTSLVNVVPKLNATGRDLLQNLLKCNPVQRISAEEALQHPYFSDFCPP
Sequence of Cyclin-dependent kinase 5/CDK5 activator 1 (Homo sapiens) (Q15078 99-307 partner limits assumed): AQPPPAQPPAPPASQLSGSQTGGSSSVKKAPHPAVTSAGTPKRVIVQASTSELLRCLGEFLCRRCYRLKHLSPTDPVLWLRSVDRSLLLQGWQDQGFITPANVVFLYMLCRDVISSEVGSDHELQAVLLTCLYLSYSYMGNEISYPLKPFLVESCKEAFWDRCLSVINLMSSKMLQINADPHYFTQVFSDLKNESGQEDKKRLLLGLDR

[4] = target: Serine/threonine-protein kinase pim-1 (Homo sapiens, UniProt P11309); assay: Inhibition of recombinant full length human PIM1 expressed in bacteria assessed as residual activity at 10 uM using histone H1 as substrate in presence of [gamma-33P]ATP
Sequence of Serine/threonine-protein kinase pim-1 (P11309 whole entry, looked up): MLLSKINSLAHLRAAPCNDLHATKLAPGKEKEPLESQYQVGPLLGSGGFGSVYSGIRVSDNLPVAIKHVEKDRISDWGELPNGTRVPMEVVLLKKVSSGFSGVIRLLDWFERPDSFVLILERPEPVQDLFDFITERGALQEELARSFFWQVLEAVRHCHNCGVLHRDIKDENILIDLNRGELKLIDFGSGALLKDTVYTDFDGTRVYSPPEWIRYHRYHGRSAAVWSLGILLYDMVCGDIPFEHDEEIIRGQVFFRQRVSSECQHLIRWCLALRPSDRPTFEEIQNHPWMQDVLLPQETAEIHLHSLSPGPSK

SF-268 = assay: Cytotoxicity against human SF268 cells assessed as cell growth at 10 uM after 48 hrs by SRB assay relative to control; assay type: functional; settings: SF-268, 48 h, read-out: Activity
MDA-MB-231 = assay: Cytotoxicity against human MDA-MB-231 cells assessed as cell growth at 10 uM after 48 hrs by SRB assay relative to control; assay type: functional; settings: MDA-MB-231, 48 h, read-out: Activity
NCI-H522 = assay: Cytotoxicity against human NCI-H522 cells assessed as cell growth at 10 uM after 48 hrs by SRB assay relative to control; assay type: functional; settings: NCI-H522, 48 h, read-out: Activity
[5] = target: Receptor-interacting serine/threonine-protein kinase 3 (Homo sapiens, UniProt Q9Y572); assay: Inhibition of recombinant full length human RIPK3 expressed in baculovirus infected Sf9 insect cells assessed as residual activity at 10 uM using MBP as substrate in presence of [gamma-33P]ATP
Sequence of Receptor-interacting serine/threonine-protein kinase 3 (Q9Y572 whole entry, looked up): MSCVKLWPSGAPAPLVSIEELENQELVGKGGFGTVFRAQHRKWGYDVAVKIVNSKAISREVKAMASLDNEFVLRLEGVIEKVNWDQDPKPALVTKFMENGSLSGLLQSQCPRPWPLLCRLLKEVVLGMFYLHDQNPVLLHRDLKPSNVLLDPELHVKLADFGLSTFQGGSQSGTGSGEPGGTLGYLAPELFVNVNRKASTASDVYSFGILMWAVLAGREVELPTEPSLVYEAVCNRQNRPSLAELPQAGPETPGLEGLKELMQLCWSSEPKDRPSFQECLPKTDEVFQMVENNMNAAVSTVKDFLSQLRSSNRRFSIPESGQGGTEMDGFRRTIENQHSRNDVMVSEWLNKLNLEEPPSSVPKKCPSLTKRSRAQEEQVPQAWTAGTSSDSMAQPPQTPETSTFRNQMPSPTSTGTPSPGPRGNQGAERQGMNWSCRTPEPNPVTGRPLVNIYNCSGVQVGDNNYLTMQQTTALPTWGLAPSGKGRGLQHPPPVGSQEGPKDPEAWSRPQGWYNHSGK

SNB-19 = assay: Cytotoxicity against human SNB19 cells assessed as cell growth at 10 uM after 48 hrs by SRB assay relative to control; assay type: functional; settings: SNB-19, 48 h, read-out: Activity
[6] = target: CDK9/cyclin T1 (Homo sapiens) (UniProt O60563+P50750); assay: Inhibition of recombinant full length human CDK9/cyclin T expressed in baculovirus infected Sf9 insect cells assessed as residual activity at 10 uM using YSPTSPSYSPTSPSYSPTSPSKKKK as substrate in presence of [gamma-33P]ATP
COLO 205 = assay: Cytotoxicity against human COLO205 cells assessed as cell growth at 10 uM after 48 hrs by SRB assay relative to control; assay type: functional; settings: COLO 205, 48 h, read-out: Activity
KM12 = assay: Cytotoxicity against human KM12 cells assessed as cell growth at 10 uM after 48 hrs by SRB assay relative to control; assay type: functional; settings: KM12, 48 h, read-out: Activity
DU-145 = assay: Cytotoxicity against human DU145 cells assessed as cell growth at 10 uM after 48 hrs by SRB assay relative to control; assay type: functional; settings: DU-145, 48 h, read-out: Activity
NCI/ADR-RES = assay: Cytotoxicity against human NCI-ADR-RES cells assessed as cell growth at 10 uM after 48 hrs by SRB assay relative to control; assay type: functional; settings: read-out: Activity
CDK9/cyclin T1 = CDK9/cyclin T1 (Homo sapiens, UniProt P50750); assay: Inhibition of recombinant full length human CDK9/cyclin T expressed in baculovirus infected Sf9 insect cells using YSPTSPSYSPTSPSYSPTSPSKKKK as substrate in presence of [gamma-33P]ATP
Sequence of CDK9/cyclin T1 (O60563 whole entry): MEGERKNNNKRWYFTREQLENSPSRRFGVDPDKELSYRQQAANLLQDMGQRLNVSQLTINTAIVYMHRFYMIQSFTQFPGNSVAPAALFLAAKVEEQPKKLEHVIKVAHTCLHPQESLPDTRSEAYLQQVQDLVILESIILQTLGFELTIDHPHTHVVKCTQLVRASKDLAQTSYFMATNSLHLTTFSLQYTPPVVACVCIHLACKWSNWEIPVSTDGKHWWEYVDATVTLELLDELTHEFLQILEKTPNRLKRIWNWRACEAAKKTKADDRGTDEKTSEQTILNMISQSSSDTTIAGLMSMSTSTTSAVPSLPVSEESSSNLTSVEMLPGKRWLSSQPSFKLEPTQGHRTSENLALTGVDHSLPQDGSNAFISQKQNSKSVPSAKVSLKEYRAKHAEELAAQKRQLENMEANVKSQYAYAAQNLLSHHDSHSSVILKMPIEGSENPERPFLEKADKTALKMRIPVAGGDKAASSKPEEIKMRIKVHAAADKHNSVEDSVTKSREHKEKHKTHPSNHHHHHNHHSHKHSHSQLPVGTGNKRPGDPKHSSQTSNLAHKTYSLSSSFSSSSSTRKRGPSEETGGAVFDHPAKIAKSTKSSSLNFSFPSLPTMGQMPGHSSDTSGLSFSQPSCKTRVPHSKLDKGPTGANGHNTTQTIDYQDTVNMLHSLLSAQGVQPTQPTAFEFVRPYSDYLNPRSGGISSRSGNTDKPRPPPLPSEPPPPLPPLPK
Sequence of CDK9/cyclin T1 (P50750 whole entry): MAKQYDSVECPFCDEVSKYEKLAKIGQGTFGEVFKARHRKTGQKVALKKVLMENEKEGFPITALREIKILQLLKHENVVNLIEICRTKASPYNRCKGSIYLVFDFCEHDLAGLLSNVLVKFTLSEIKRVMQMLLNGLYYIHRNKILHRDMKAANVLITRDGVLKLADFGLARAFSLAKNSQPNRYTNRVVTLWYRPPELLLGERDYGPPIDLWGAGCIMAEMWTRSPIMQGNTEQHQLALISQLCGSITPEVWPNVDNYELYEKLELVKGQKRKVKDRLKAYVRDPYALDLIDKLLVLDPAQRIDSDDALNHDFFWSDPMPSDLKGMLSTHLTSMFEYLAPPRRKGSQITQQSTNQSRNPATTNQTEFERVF

HOP-92 = assay: Cytotoxicity against human HOP92 cells assessed as cell growth at 10 uM after 48 hrs by SRB assay relative to control; assay type: functional; settings: HOP-92, 48 h, read-out: Activity

Row | Compound | growth at 10 µM (CAKI-1) | Activity (Sus scrofa domesticus) | growth at 10 µM (OVCAR-5) | growth at 10 µM (MDA-MB-435) | growth at 10 µM (HCC 2998) | Activity [1] | growth at 10 µM (Malme-3M) | growth at 10 µM (SW-620) | growth at 10 µM (IGROV-1) | growth at 10 µM (U-251) | growth at 10 µM (SK-MEL-28) | IC50 [2] | Activity [3] | Activity [4] | growth at 10 µM (SF-268) | growth at 10 µM (MDA-MB-231) | growth at 10 µM (NCI-H522) | Activity [5] | growth at 10 µM (SNB-19) | Activity [6] | other results
1 | Cn1cc(C2=C(c3c[nH]c4ccccc34)C(=O)N(O)C2=O)c2ccccc21 | 61.5% | 40% | 95% | 17.1% | 89.9% | 77% | 68.7% | 87.7% | 83% | 98.5% | 92% | 200 nM | 66% | 8% | 90.4% | 59.5% | 56.3% | 100% | 97.5% | 19% | growth at 10 µM (SK-MEL-5): 72%; growth at 10 µM (SNB-75): 72.5%; growth at 10 µM (SF-539): 95.5%; growth at 10 µM (CCRF-CEM): 82.2%; growth at 10 µM (COLO 205): 86%; growth at 10 µM (KM12): 81.7%; growth at 10 µM (DU-145): 100%; growth at 10 µM (NCI/ADR-RES): 89.5%; IC50 (CDK9/cyclin T1): 2000 nM
2 | Cn1cc(C2=C(c3cn(C)c4ncccc34)C(=O)NC2=O)c2ccccc21 | 35% | 76% | 13 to 54.6% | 12.9 to 14% | 30 to 58.9% | -3% | 20.3 to 29% | 12.9 to 20% | 8 to 70.8% | 27% | 8 to 51.3% | 30 nM | -1% | 1% | 27 to 50.2% | 35 to 56.3% | 14.3 to 32% | 79% | 40 to 65% | -10% | growth at 10 µM (CCRF-CEM): 6.61 to 9%; growth at 10 µM (HOP-92): 12%; growth at 10 µM (COLO 205): -63%; growth at 10 µM (KM12): 8.78 to 12%; growth at 10 µM (DU-145): 36 to 63.2%; growth at 10 µM (NCI/ADR-RES): 34 to 53.5%; IC50 (CDK9/cyclin T1): 80 nM
3 | CC(C)n1cc(C2=C(c3cn(C)c4ccccc34)C(=O)N(O)C2=O)c2ccccc21 | 72.7% | 98% | 90.3% | 104% | 110% | 23% | 89% | 101% | 96.2% | 98.8% | 112% | 200 nM | 34% | 28% | 97.3% | 70.1% | 84.7% | 103% | 101% | -7% | growth at 10 µM (SK-MEL-5): 76.2%; growth at 10 µM (SNB-75): 84.9%; growth at 10 µM (SF-539): 97.6%; growth at 10 µM (COLO 205): 101%; growth at 10 µM (KM12): 87.4%; growth at 10 µM (DU-145): 192%; growth at 10 µM (NCI/ADR-RES): 92.4%; IC50 (CDK9/cyclin T1): 1500 nM
